Results from patent US7064120B2, “Tricyclic pyridyl carboxamides and derivatives thereof tocolytic oxytocin receptor antagonists” (Wyeth, priority 2001, dated 2006).

Legend:
[1] = target: T1, human vasopressin V2 receptor subtype (Homo sapiens, UniProt P30518); test: Vasopressin binding in CHO cell membranes expressing human vasopressin V2 subtype receptors ([3H]arginine vasopressin radioligand binding); settings: for IC50: value in parentheses; for inhibition at 0.1 µM: 100 nM
T1 construct: host or cells: CHO cells, stably transfected (pZeoSV vector)
Outline: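 Values are IC50 in nM or percent inhibition at a stated concentration, from scintillation counts after filtration. Binding ran 60 min at room temperature: [3H]arginine vasopressin, human V2-transfected CHO membranes (25 to 50 μg protein/well), pH 7.4 Tris-HCl buffer containing MgCl2, BSA, protease inhibitors.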

T1 sequence (P30518 whole entry): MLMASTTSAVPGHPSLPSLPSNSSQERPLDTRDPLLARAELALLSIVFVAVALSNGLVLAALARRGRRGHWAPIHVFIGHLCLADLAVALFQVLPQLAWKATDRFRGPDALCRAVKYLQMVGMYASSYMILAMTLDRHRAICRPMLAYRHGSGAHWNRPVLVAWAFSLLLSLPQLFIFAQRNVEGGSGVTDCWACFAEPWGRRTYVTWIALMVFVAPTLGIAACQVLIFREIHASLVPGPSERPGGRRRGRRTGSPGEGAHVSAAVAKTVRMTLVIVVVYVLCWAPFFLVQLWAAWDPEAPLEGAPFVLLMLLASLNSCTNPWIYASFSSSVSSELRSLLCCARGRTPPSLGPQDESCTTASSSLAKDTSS

melting point	IC50 [1] [µM]	inhibition at 0.1 µM [1] [%]	Structure (SMILES)
124 to 126 °C	0.433	–	COc1cc(-c2ccccc2C(F)(F)F)c(Cl)cc1C(=O)N1Cc2ccc(C(=O)N(C)Cc3cccnc3)n2Cc2ccccc21 [Example 5, 10-{[6-Chloro-3-methoxy-2′-trifluoromethyl-[1,1′-biphenyl]-4-yl]carbonyl}-N-methyl-N-(pyridin-3-ylmethyl)-10,11-dihydro-5H-pyrrolo[2,1-c][1,4]benzodiazepine-3-carboxamide]
165 to 170 °C (dec.)	0.237	–	COc1cc(C(=O)N2Cc3ccc(C(=O)N(C)Cc4ccc[n+]([O-])c4)n3Cc3ccccc32)ccc1-c1ccccc1C(F)(F)F [Example 8, 10-{[2-Methoxy-2′-trifluoromethyl-[1,1′-biphenyl]-4-yl]carbonyl}-N-methyl-N-(1-oxo-pyridin-3-ylmethyl)-10,11-dihydro-5H-pyrrolo[2,1-c][1,4]benzodiazepine-3-carboxamide]
–	–	6	Cc1ccccc1-c1ccc(C(=O)N2Cc3ccc(C(=O)N(C)Cc4cccnc4)n3Cc3ccccc32)cc1 [Example 105, N-Methyl-10-[(2′-methyl-[1,1′-biphenyl]-4-yl)carbonyl]-N-(3-pyridinylmethyl)-10,11-dihydro-5H-pyrrolo[2,1-c][1,4]benzodiazepine-3-carboxamide]
–	–	16	CN(CCc1ccccn1)C(=O)c1ccc2n1Cc1ccccc1N(C(=O)c1ccc(-c3cccc4ccccc34)cc1Cl)C2 [Example 73, 10-[2-Chloro-4-(naphthalen-1-yl)benzoyl]-N-methyl-N-[2-(2-pyridinyl)ethyl]-10,11-dihydro-5H-pyrrolo[2,1-c][1,4]benzodiazepine-3-carboxamide]
196 to 198 °C	0.309	–	COc1cc(-c2ccccc2Cl)c(Cl)cc1C(=O)N1Cc2ccc(C(=O)N(C)Cc3cccnc3)n2Cc2ccccc21 [Example 6, 10-[(2′,6-Dichloro-3-methoxy-[1,1′-biphenyl]-4-yl)carbonyl]-N-methyl-N-(pyridin-3-ylmethyl)-10,11-dihydro-5H-pyrrolo[2,1-c][1,4]benzodiazepine-3-carboxamide]
–	0.534	–	COc1cccc(-c2ccc(C(=O)N3Cc4ccc(C(=O)N(C)Cc5cccnc5)n4Cc4ccccc43)cc2C)c1 [Example 102, 10-[(3′-Methoxy-2-methyl-[1,1′-biphenyl]4-yl)carbonyl]-N-methyl-N-(3-pyridinyImethyl)-10,11-dihydro-5H-pyrrolo[2,1-c][1,4]benzodiazepine-3-carboxamide]
–	–	5	COc1cccc(-c2ccc(C(=O)N3Cc4ccc(C(=O)N5CCN(c6ccccn6)CC5)n4Cc4ccccc43)cc2OC)c1 [Example 85, {10-[(2,3′-Dimethoxy-[1,1′-biphenyl]-4-yl)carbonyl]-10,11-dihydro-5H-pyrrolo[2,1-c][1,4]benzodiazepin-3-yl}[4-(2-pyridinyl)-1-piperazinyl]methanone]
–	–	15	COc1cc(C(=O)N2Cc3ccc(C(=O)N(C)CCc4ccccn4)n3Cc3ccccc32)ccc1-c1ccccc1C [Example 69, 10-[(2-Methoxy-2′-methyl-[1,1′-biphenyl]-4-yl)carbonyl]-N-methyl-N-[2-(2-pyridinyl)ethyl]-10,11-dihydro-5H-pyrrolo[2,1-c][1,4]benzodiazepine-3-carboxamide]
–	–	0	Cc1ccccc1-c1ccc(C(=O)N2Cc3ccc(C(=O)NCc4ccncc4)n3Cc3ccccc32)cc1 [Example 92, 10-[(2′-Methyl-[1,1′-biphenyl]-4-yl)carbonyl]-N-(4-pyridinylmethyl)-10,11-dihydro-5H-pyrrolo[2,1-c][1,4]benzodiazepine-3-carboxamide]
–	–	21	Cc1ccccc1-c1ccc(C(=O)N2Cc3ccc(C(=O)N4CCN(c5ccccn5)CC4)n3Cc3ccccc32)cc1C [Example 76, {10-[(2,2′-Dimethyl-[1,1′-biphenyl]-4-yl)carbonyl]-10,11-dihydro-5H-pyrrolo[2,1-c][1,4]benzodiazepin-3-yl}[4-(2-pyridinyl)-1-piperazinyl]methanone]
–	–	8	COc1cc(C(=O)N2Cc3ccc(C(=O)N4CCN(c5ccccn5)CC4)n3Cc3ccccc32)ccc1-c1ccccc1C [Example 80, {10-[(2-Methoxy-2′-methyl-[1,1′-biphenyl]-4-yl)carbonyl]-10,11-dihydro-5H-pyrrolo[2,1-c][1,4]benzodiazepin-3-yl}[4-(2-pyridinyl)-1-piperazinyl]methanone]
–	–	5	COc1cc(-c2ccccc2C)c(Cl)cc1C(=O)N1Cc2ccc(C(=O)NCc3ccncc3)n2Cc2ccccc21 [Example 94, 10-[(6-Chloro-3-methoxy-2′-methyl-[1,1′-biphenyl]-4-yl)carbonyl]-N-(4-pyridinylmethyl)-10,11-dihydro-5H-pyrrolo[2,1-c][1,4]benzodiazepine-3-carboxamide]
–	–	24	COc1cc(C(=O)N2Cc3ccc(C(=O)N(C)CCc4ccccn4)n3Cc3ccccc32)ccc1-c1cccc2ccccc12 [Example 71, 10-[3-Methoxy-4-(naphthalen-1-yl)benzoyl]-N-methyl-N-[2-(2-pyridinyl)ethyl]-10,11-dihydro-5H-pyrrolo[2,1-c][1,4]benzodiazepine-3-carboxamide]
–	–	24	Cc1ccccc1-c1ccc(C(=O)N2Cc3ccc(C(=O)N(C)CCc4ccccn4)n3Cc3ccccc32)cc1C [Example 66, 10-[(2,2′-Dimethyl-[1,1′-biphenyl]-4-yl)carbonyl]-N-methyl-N-[2-(2-pyridinyl)ethyl]-10,11-dihydro-5H-pyrrolo[2,1-c][1,4]benzodiazepine-3-carboxamide]
–	1.42	–	Cc1cc(C(=O)N2Cc3ccc(C(=O)N4CCN(Cc5ccc[n+]([O-])c5)CC4)n3Cc3ccccc32)ccc1-c1ccccc1C(F)(F)F [Example 2, 10-{[2-Methyl-2′-trifluoromethyl-[1,1′-biphenyl]-4-yl]carbonyl}-3-({4-[(1-oxidopyridin-3-yl)methyl]piperazin-1-yl}carbonyl)-10,11-dihydro-5H-pyrrolo[2,1-c][1,4]benzodiazepine]
–	–	8	COc1cccc(-c2cc(OC)c(C(=O)N3Cc4ccc(C(=O)N5CCN(c6ccccn6)CC5)n4Cc4ccccc43)cc2Cl)c1 [Example 82, {10-[(6-Chloro-3,3′-dimethoxy-[1,1′-biphenyl]-4-yl)carbonyl]-10,11-dihydro-5H-pyrrolo[2,1-c][1,4]benzodiazepin-3-yl}[4-(2-pyridinyl)-1-piperazinyl]methanone]
–	1.13	–	Cc1cc(C(=O)N2Cc3ccc(C(=O)N(C)Cc4cccnc4)n3Cc3ccccc32)ccc1-c1ccccc1C(F)(F)F [Example 112, N-Methyl-10-{[2-methyl-2′-trifluoromethyl-[1,1′-biphenyl]-4-yl]carbonyl}-N-(3-pyridinylmethyl)-10,11-dihydro-5H-pyrrolo[2,1-c][1,4]benzodiazepine-3-carboxamide]
–	0.27	–	COc1ccccc1-c1ccc(C(=O)N2Cc3ccc(C(=O)N(C)Cc4cccnc4)n3Cc3ccccc32)cc1C [Example 101, 10-[(2′-Methoxy-2-methyl-[1,1′-biphenyl]-4-yl)carbonyl]-N-methyl-N-(3-pyridinylmethyl)-10,11-dihydro-5H-pyrrolo[2,1-c][1,4]benzodiazepine-3-carboxamide]
–	1.49	–	COc1cccc(-c2ccc(C(=O)N3Cc4ccc(C(=O)N(C)CCc5ccccn5)n4Cc4ccccc43)cc2C)c1 [Example 62, 10-[(3′-Methoxy-2-methyl-[1,1′-biphenyl]-4-yl)carbonyl]-N-methyl-N-[2-(2-pyridinyl)ethyl]-10,11-dihydro-5H-pyrrolo[2,1-c][1,4]benzodiazepine-3-carboxamide]
–	> 3	–	Cc1cc(C(=O)N2Cc3ccc(C(=O)N4CCN(Cc5ccc[n+]([O-])c5C)CC4)n3Cc3ccccc32)ccc1-c1ccccc1C(F)(F)F [Example 3, 3-({4-[(2-Methyl-1-oxidopyridin-3-yl)methyl]piperazin-1-yl}carbonyl)-10-{[2-methyl-2′-trifluoromethyl-[1,1′-biphenyl]-4-yl]carbonyl}-10,11-dihydro-5H-pyrrolo[2,1-c][1,4]benzodiazepine]
–	–	11	O=C(c1ccc2n1Cc1ccccc1N(C(=O)c1ccc(-c3cccc4ccccc34)cc1Cl)C2)N1CCN(c2ccccn2)CC1 [Example 86, {10-[2-Chloro-4-(naphthalen-1-yl)benzoyl]-10,11-dihydro-5H-pyrrolo[2,1-c][1,4]benzodiazepin-3-yl}[4-(2-pyridinyl)-1-piperazinyl]methanone]
–	–	13	COc1ccccc1-c1ccc(C(=O)N2Cc3ccc(C(=O)NCc4ccncc4)n3Cc3ccccc32)cc1C [Example 88, 10-[(2′-Methoxy-2-methyl-[1,1′-biphenyl]-4-yl)carbonyl]-N-(4-pyridinylmethyl)-10,11-dihydro-5H-pyrrolo[2,1-c][1,4]benzodiazepine-3-carboxamide]
